# Reference: patent publication US20250154525A1, “PLANT VIRUS MOVEMENT PROTEINS AND METHODS OF USING SAME” (Molecular Transfer, Inc., priority 2016, published 2025)
# Assays:
# C2C12 Cells = assay: GFP plasmid transfection with DOTMA/DOPE plus surface ligand peptide, fluorescent plate reader (Example 1); format: cell-based, mouse; details: DOTMA/DOPE + peptide linked to R12 or K16; EF1Alpha eGFP plasmid; 42 hours
# Protocol: (§1) Cells were plated to so that on the day of transfection the cells were 70% confluent in 96 well tissue culture plates. A DOMTA/DOPE Lipid solution (1:1 molar ratio) at 2 mg/mL in water were mixed with an equal volume cell surface ligand containing adhesion peptide, the plant virus movement protein, or peptide derived therefrom, that had the nucleic acid binding moiety RRRRRRRRRRRR (SEQ ID NO:109) or KKKKKKKKKKKKKKKK (SEQ ID NO: 102) covalently linked to the N-terminus, or C-terminus of each peptide during peptide synthesis. Peptides were at 2 mg/mL in water. The DOTMA/DOPE and the solution containing the cell surface ligand containing adhesion peptide, the plant virus movement protein, or peptide derived therefrom, surface ligand peptide the was diluted 1 to 1 (v/v) in water. DOMTA/DOPE/PEPTIDE solutions were added to 0.1 mL of a plasmid DNA solution (EF1Alpha eGFP plasmid) at 10 μg/mL in OptiMEM.
# (§2) All solutions were at room temperature. A volume of 0.2 mL of a 10 μg/mL solution of DNA was aliquoted into each well of a non-tissue cultured treated plate. 1-12 μL of transfection reagents were added to DNA solutions respectively. The transfection reagent and DNA solution was mixed by pipetting up and down twice. Transfection complexes were formed for 10 minutes. After 10 minutes, 0.01 or 0.02 mL of the transfection complex was added to cells. HuVEC, HeLa, human adult keratinocytes, human primary adult fibroblast, and A549 cells all respectively received 0.01 mL of the transfection complex. Human skeletal muscle cells, mouse C2C12 cells, and Jurkat, cells received 0.02 mL of the transfection complex. Cells were incubated for 42 hours at 37° C. at 5% CO2. Plates were read on a fluorescent plate reader. Cells were also examined visually under a microscope to assess the extent of transfection (in terms of the percent of cells transfected) with a fluorescent microscope. Other modes of analysis, for example quantification with B-galactocidase or luciferase reports plasmids can also be used.
# (§3) Surface ligand that caused increase expression of GFP over the lipid DOTMA with no surface ligand were considered to enhance transfection or had higher % cells transfected were considered to enhance transfection. Peptides that gave greater than 2-fold enhancement are noted in bold and could be further optimized by adding different transfection enhancers or could be used with different cationic lipids or polymers.
# (§4) Tables 2-7, below, provide the results of the transfection enhancements with the various cell types, while Table 8 lists the peptides that were determined by visual inspection to enhance the transfection of the denoted cell lines over the lipid DOTMA.
# HeLa Cells [1] = assay: GFP transfection with DOTMA/SEQ ID NO: 72 (fusogenic peptide)/peptide compared with Lipofectamine 2000; format: cell-based
# Protocol: as §1, §2
# The fusogenic peptide was added to the DOMTA/peptide formulation to achieve a final concentration of 0.1 mg/mL to see if transfection reagents were further enhanced by the addition of a fusogenic peptide and could provide higher transfection efficiency into HeLa cells and expression than the commercially available Lipofectamine 2000.
# some examined cell types = assay: Summary of Example 1: transfection expression and % cells transfected over the no peptide control; format: cell-based; details: on some examined cell types
# Protocol: as §1, §2, §3
# NL-1 iPS Cells = assay: GFP plasmid transfection with DOTMA/DOPE plus surface ligand peptide, fluorescent plate reader (Example 1); format: cell-based; details: DOTMA/DOPE + peptide linked to R12 or K16; EF1Alpha eGFP plasmid; 42 hours
# Protocol: as §1, §2, §3, §4
# Human Fibroblast Cells = assay: as above; format: cell-based; details: DOTMA/DOPE + peptide linked to R12 or K16; EF1Alpha eGFP plasmid; 42 hours
# Protocol: as §1, §2, §3, §4
# HeLa Cells [2] = assay: as above; format: cell-based; details: DOTMA/DOPE + peptide linked to R12 or K16; EF1Alpha eGFP plasmid; 42 hours
# Protocol: as §1, §2, §3, §4
# Jurkat Cells = assay: as above; format: cell-based; details: DOTMA/DOPE + peptide linked to R12 or K16; EF1Alpha eGFP plasmid; 42 hours
# Protocol: as §1, §2, §3, §4
# HuVec Cells = assay: as above; format: cell-based; details: DOTMA/DOPE + peptide linked to R12 or K16; EF1Alpha eGFP plasmid; 42 hours
# Protocol: as §1, §2, §3, §4
# [3] = 0.1 μL of DOTMA/SEQ ID NO: 72/Peptide in well of a 96 well plate
# [4] = 0.2 μL of DOTMA/SEQ ID NO: 72/Peptide in well of a 96 well plate
# [5] = 0.3 μL of DOTMA/SEQ ID NO: 72/Peptide in well of a 96 well plate
# [6] = 0.4 μL of DOTMA/SEQ ID NO: 72/Peptide in well of a 96 well plate
substance,measurement,setting,value
268 (GGFLKYTVSYDI) [compound 268],Relative Fluorescence of Transfection of C2C12 Cells (RF),C2C12 Cells,2568
same,"Relative Fluorescence DOTMA/SEQ ID NO: 72/Peptide, HeLa Cells (RF)",HeLa Cells [1]; [3],10162
same,"Relative Fluorescence DOTMA/SEQ ID NO: 72/Peptide, HeLa Cells (RF)",HeLa Cells [1]; [4],9934
same,"Relative Fluorescence DOTMA/SEQ ID NO: 72/Peptide, HeLa Cells (RF)",HeLa Cells [1]; [5],10792
same,"Relative Fluorescence DOTMA/SEQ ID NO: 72/Peptide, HeLa Cells (RF)",HeLa Cells [1]; [6],9519
same,transfection expression and % cells transfected over the no peptide control,some examined cell types,increased transfection expression and the % cells transfected
same,Relative Fluorescence of Transfection of NL-1 iPS Cells (RF),NL-1 iPS Cells,15697
same,Relative Fluorescence of Transfection of Human Fibroblast Cells (RF),Human Fibroblast Cells,4568
same,Relative Fluorescence of Transfection of HeLa Cells (RF),HeLa Cells [2],25885
same,Relative Fluorescence of Transfection of Jurkat Cells (RF),Jurkat Cells,3236
same,Relative Fluorescence of Transfection of HuVec Cells (RF),HuVec Cells,5403
379 (TAGSCLRKF) [compound 379],Relative Fluorescence of Transfection of C2C12 Cells (RF),C2C12 Cells,3189
same,"Relative Fluorescence DOTMA/SEQ ID NO: 72/Peptide, HeLa Cells (RF)",HeLa Cells [1]; [3],50018
same,"Relative Fluorescence DOTMA/SEQ ID NO: 72/Peptide, HeLa Cells (RF)",HeLa Cells [1]; [4],47049
same,"Relative Fluorescence DOTMA/SEQ ID NO: 72/Peptide, HeLa Cells (RF)",HeLa Cells [1]; [5],39036
same,"Relative Fluorescence DOTMA/SEQ ID NO: 72/Peptide, HeLa Cells (RF)",HeLa Cells [1]; [6],26448
same,transfection expression and % cells transfected over the no peptide control,some examined cell types,increased transfection expression and the % cells transfected
same,Relative Fluorescence of Transfection of NL-1 iPS Cells (RF),NL-1 iPS Cells,6894
same,Relative Fluorescence of Transfection of Human Fibroblast Cells (RF),Human Fibroblast Cells,8520
same,Relative Fluorescence of Transfection of HeLa Cells (RF),HeLa Cells [2],27424
same,Relative Fluorescence of Transfection of Jurkat Cells (RF),Jurkat Cells,7711
same,Relative Fluorescence of Transfection of HuVec Cells (RF),HuVec Cells,14573
353 (KKQRFRHRNRKGYRSQ) [compound 353],Relative Fluorescence of Transfection of C2C12 Cells (RF),C2C12 Cells,4291
same,"Relative Fluorescence DOTMA/SEQ ID NO: 72/Peptide, HeLa Cells (RF)",HeLa Cells [1]; [3],36315
same,"Relative Fluorescence DOTMA/SEQ ID NO: 72/Peptide, HeLa Cells (RF)",HeLa Cells [1]; [4],44772
same,"Relative Fluorescence DOTMA/SEQ ID NO: 72/Peptide, HeLa Cells (RF)",HeLa Cells [1]; [5],36882
same,"Relative Fluorescence DOTMA/SEQ ID NO: 72/Peptide, HeLa Cells (RF)",HeLa Cells [1]; [6],25802
same,transfection expression and % cells transfected over the no peptide control,some examined cell types,increased transfection expression and the % cells transfected
same,Relative Fluorescence of Transfection of NL-1 iPS Cells (RF),NL-1 iPS Cells,9248
same,Relative Fluorescence of Transfection of Human Fibroblast Cells (RF),Human Fibroblast Cells,8653
same,Relative Fluorescence of Transfection of HeLa Cells (RF),HeLa Cells [2],29119
same,Relative Fluorescence of Transfection of Jurkat Cells (RF),Jurkat Cells,11107
same,Relative Fluorescence of Transfection of HuVec Cells (RF),HuVec Cells,8772
343 (LFSHAVSSNG) [compound 343],Relative Fluorescence of Transfection of C2C12 Cells (RF),C2C12 Cells,3218
same,"Relative Fluorescence DOTMA/SEQ ID NO: 72/Peptide, HeLa Cells (RF)",HeLa Cells [1]; [3],6961
same,"Relative Fluorescence DOTMA/SEQ ID NO: 72/Peptide, HeLa Cells (RF)",HeLa Cells [1]; [4],8626
same,"Relative Fluorescence DOTMA/SEQ ID NO: 72/Peptide, HeLa Cells (RF)",HeLa Cells [1]; [5],8577
same,"Relative Fluorescence DOTMA/SEQ ID NO: 72/Peptide, HeLa Cells (RF)",HeLa Cells [1]; [6],8160
same,transfection expression and % cells transfected over the no peptide control,some examined cell types,increased transfection expression and the % cells transfected
same,Relative Fluorescence of Transfection of NL-1 iPS Cells (RF),NL-1 iPS Cells,21726
same,Relative Fluorescence of Transfection of Human Fibroblast Cells (RF),Human Fibroblast Cells,4590
same,Relative Fluorescence of Transfection of HeLa Cells (RF),HeLa Cells [2],5910
same,Relative Fluorescence of Transfection of Jurkat Cells (RF),Jurkat Cells,23499
same,Relative Fluorescence of Transfection of HuVec Cells (RF),HuVec Cells,16239
237 (KNSFMALYLSKG) [compound 237],Relative Fluorescence of Transfection of C2C12 Cells (RF),C2C12 Cells,6491
same,"Relative Fluorescence DOTMA/SEQ ID NO: 72/Peptide, HeLa Cells (RF)",HeLa Cells [1]; [3],8986
same,"Relative Fluorescence DOTMA/SEQ ID NO: 72/Peptide, HeLa Cells (RF)",HeLa Cells [1]; [4],9753
same,"Relative Fluorescence DOTMA/SEQ ID NO: 72/Peptide, HeLa Cells (RF)",HeLa Cells [1]; [5],8015
same,"Relative Fluorescence DOTMA/SEQ ID NO: 72/Peptide, HeLa Cells (RF)",HeLa Cells [1]; [6],8288
same,transfection expression and % cells transfected over the no peptide control,some examined cell types,increased transfection expression and the % cells transfected
same,Relative Fluorescence of Transfection of NL-1 iPS Cells (RF),NL-1 iPS Cells,8632
same,Relative Fluorescence of Transfection of Human Fibroblast Cells (RF),Human Fibroblast Cells,2184
same,Relative Fluorescence of Transfection of HeLa Cells (RF),HeLa Cells [2],21288
same,Relative Fluorescence of Transfection of Jurkat Cells (RF),Jurkat Cells,1501
same,Relative Fluorescence of Transfection of HuVec Cells (RF),HuVec Cells,2302
218 (SPPRRARVT) [compound 218],Relative Fluorescence of Transfection of C2C12 Cells (RF),C2C12 Cells,3706
same,"Relative Fluorescence DOTMA/SEQ ID NO: 72/Peptide, HeLa Cells (RF)",HeLa Cells [1]; [3],12686
same,"Relative Fluorescence DOTMA/SEQ ID NO: 72/Peptide, HeLa Cells (RF)",HeLa Cells [1]; [4],13103
same,"Relative Fluorescence DOTMA/SEQ ID NO: 72/Peptide, HeLa Cells (RF)",HeLa Cells [1]; [5],10151
same,"Relative Fluorescence DOTMA/SEQ ID NO: 72/Peptide, HeLa Cells (RF)",HeLa Cells [1]; [6],10081
same,transfection expression and % cells transfected over the no peptide control,some examined cell types,increased transfection expression and the % cells transfected
same,Relative Fluorescence of Transfection of NL-1 iPS Cells (RF),NL-1 iPS Cells,17049
same,Relative Fluorescence of Transfection of Human Fibroblast Cells (RF),Human Fibroblast Cells,11230
same,Relative Fluorescence of Transfection of HeLa Cells (RF),HeLa Cells [2],11179
same,Relative Fluorescence of Transfection of Jurkat Cells (RF),Jurkat Cells,21451
same,Relative Fluorescence of Transfection of HuVec Cells (RF),HuVec Cells,14827
